Where a SMILES comes first, the peptide text is derived from it. [ ]: non-standard residue; d: D form. dLac(3-vinyl) = C=CC[C@@H](O)C(=O)O; NMeV = CN[C@H](C(=O)O)C(C)C; NMeA = CN[C@@H](C)C(=O)O; βAla = NCCC(=O)O
Biological target: T1, BmTMEM214 (BmTEME214) (Bombyx mori, UniProt A0A8R1WLS5)
T1 construct: immobilised on biosensor
T1 sequence (A0A8R1WLS5 1-663): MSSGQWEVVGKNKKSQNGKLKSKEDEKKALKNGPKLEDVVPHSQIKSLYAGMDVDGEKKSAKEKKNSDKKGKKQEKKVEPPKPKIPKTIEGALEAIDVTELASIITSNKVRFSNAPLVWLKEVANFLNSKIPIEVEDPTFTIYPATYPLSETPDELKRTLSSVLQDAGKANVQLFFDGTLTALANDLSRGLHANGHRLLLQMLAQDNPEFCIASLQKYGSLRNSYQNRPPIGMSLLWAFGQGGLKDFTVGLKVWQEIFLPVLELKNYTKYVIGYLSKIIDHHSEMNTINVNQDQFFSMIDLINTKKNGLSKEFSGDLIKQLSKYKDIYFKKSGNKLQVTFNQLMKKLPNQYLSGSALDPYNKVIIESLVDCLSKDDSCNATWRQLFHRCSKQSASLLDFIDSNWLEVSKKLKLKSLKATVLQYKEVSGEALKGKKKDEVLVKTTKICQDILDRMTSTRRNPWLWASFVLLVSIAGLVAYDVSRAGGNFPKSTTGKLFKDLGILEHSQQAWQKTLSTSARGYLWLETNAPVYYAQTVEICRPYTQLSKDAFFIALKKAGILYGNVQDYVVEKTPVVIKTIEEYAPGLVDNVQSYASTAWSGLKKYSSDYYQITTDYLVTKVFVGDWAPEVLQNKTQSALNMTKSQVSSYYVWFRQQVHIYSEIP
Assay: bio-layer interferometry, immobilised protein
Assay type: binding
Excerpt: bio-layer interferometry, immobilised protein on BmTMEM214 (BmTEME214)

## C=CC[C@H]1OC(=O)CCNC(=O)[C@H](C)N(C)C(=O)[C@H](C(C)C)N(C)C(=O)[C@H]([C@@H](C)CC)NC(=O)[C@@H]2CCCN2C1=O [DA, Destruxin A] (cyclo(I[NMeV][NMeA][βAla][dLac(3-vinyl)]P))
  Kd: 286 nM
